Experimental data taken from PubChem BioAssay AID330 (DTP/NCI, 2004).
Inconclusive results and toxic doses are left out. Rule for the calls: active = survival T/C of 150% or more; inactive = T/C below 125% in these data. Square brackets hold non-standard residues; d marks the D form. Peptide text beside a SMILES is read from it. ξ: configuration not given here. Ac5c = NC1(C(=O)O)CCCC1; ξP = O=C(O)C1CCCN1

System: P388 leukemia ip, CD2F1 mice, survival T/C
Assay: NCI In Vivo Anticancer Drug Screen. Data for tumor model P388 Leukemia (intraperitoneal) in CD2F1 (CDF1) mice
Details: endpoint: median survival time, higher = longer survival
Summary of the method: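 Mice carrying the transplanted tumor received test compound or vehicle. Survival was recorded in each group, and the value is the treated-group measurement divided by that of the vehicle-treated control group.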

[1] = dose: 25.0 mg/kg/injection, schedule: Q01DX009 (ip), vehicle: saline with Tween-80
[2] = dose: 50.0 mg/kg/injection, schedule: Q01DX009 (ip), vehicle: saline with Tween-80
[3] = dose: 100.0 mg/kg/injection, schedule: Q01DX009 (ip), vehicle: saline with Tween-80
[4] = dose: 100.0 mg/kg/injection, schedule: Q04DX002 (ip), vehicle: saline with Tween-80
[5] = dose: 200.0 mg/kg/injection, schedule: Q04DX002 (ip), vehicle: saline with Tween-80
[6] = dose: 50.0 mg/kg/injection, schedule: Q01DX005 (ip), vehicle: saline
[7] = dose: 100.0 mg/kg/injection, schedule: Q01DX005 (ip), vehicle: saline
[8] = dose: 200.0 mg/kg/injection, schedule: Q01DX005 (ip), vehicle: saline
[9] = dose: 50.0 mg/kg/injection, schedule: Q01DX005 (ip), vehicle: saline with Tween-80
[10] = dose: 100.0 mg/kg/injection, schedule: Q01DX005 (ip), vehicle: saline with Tween-80
[11] = dose: 200.0 mg/kg/injection, schedule: Q01DX005 (ip), vehicle: saline with Tween-80

Measured: T/C

Cn1c(=O)c2conc2n(-c2ccc(Cl)cc2)c1=O
inactive: [1] 100 % of control | [2] 103 % of control | [3] 95 % of control

COc1nc(NC2OC(CO)C(O)C(O)C2O)c(C=O)c(=O)n1C (configuration not stated)
inactive: dose: 60.0 mg/kg/injection, schedule: Q01DX005 (ip), vehicle: saline 93 % of control | dose: 120.0 mg/kg/injection, schedule: Q01DX005 (ip), vehicle: saline 100 % of control | dose: 240.0 mg/kg/injection, schedule: Q01DX005 (ip), vehicle: saline 99 % of control

CC(C)NCC(O)COc1ccc(OCc2ccccc2)c(OCc2ccccc2)c1 (configuration not stated)
inactive: [2] 100 % of control

CCN1CC[N+](CC)=C1C(=S)[S-]
inactive: dose: 100.0 mg/kg/injection, schedule: Q01DX001 (ip), vehicle: saline with Tween-80 100 % of control | dose: 200.0 mg/kg/injection, schedule: Q01DX001 (ip), vehicle: saline with Tween-80 104 % of control | dose: 400.0 mg/kg/injection, schedule: Q01DX001 (ip), vehicle: saline with Tween-80 100 % of control

CCN(CC)C(=O)N1CCN(C(=O)c2cc(Nc3ccnc4cc(Cl)ccc34)ccc2O)CC1
inactive: [4] 100 % of control | [5] 100 % of control | dose: 400.0 mg/kg/injection, schedule: Q04DX002 (ip), vehicle: saline with Tween-80 89 % of control

NC1(C(=O)N2CCCC2C(=O)O)CCCC1 (configuration not stated) (H-[Ac5c]-[ξP]-OH)
inactive: [6] 96 % of control | [7] 89 % of control | [8] 108 % of control

Cc1ccc(C(=O)[O][Hg][CH2]C2COC([CH2][Hg][O]C(=O)c3ccc(C)cc3)CO2)cc1 (configuration not stated)
inactive: [1] 116 % of control | [2] 113 % of control | [3] 100 % of control

COC(=O)C1=CN(C(C)=O)C=C(C(=O)OC)C1c1ccccc1
inactive: [9] 102 % of control | [10] 93 % of control | [11] 92 % of control

O=S(O)O
inactive: [6] 108 % of control | [7] 101 % of control | [8] 109 % of control | dose: 400.0 mg/kg/injection, schedule: Q01DX005 (ip), vehicle: saline 116 % of control

CCCCCCCCCCCCNC(=O)NCC(=O)OCC
inactive: dose: 25.0 mg/kg/injection, schedule: Q01DX009 (ip), vehicle: Klucel (hydroxypropylcellulose) (HPC) 91 % of control | dose: 50.0 mg/kg/injection, schedule: Q01DX009 (ip), vehicle: Klucel (hydroxypropylcellulose) (HPC) 100 % of control | dose: 100.0 mg/kg/injection, schedule: Q01DX009 (ip), vehicle: Klucel (hydroxypropylcellulose) (HPC) 103 % of control | dose: 200.0 mg/kg/injection, schedule: Q01DX009 (ip), vehicle: Klucel (hydroxypropylcellulose) (HPC) 89 % of control

O=C1C2CCCC1C(c1ccccc1)NC2c1ccccc1 (configuration not stated)
inactive: dose: 25.0 mg/kg/injection, schedule: Q01DX005 (ip), vehicle: Klucel (hydroxypropylcellulose) (HPC) 104 % of control | dose: 50.0 mg/kg/injection, schedule: Q01DX005 (ip), vehicle: Klucel (hydroxypropylcellulose) (HPC) 102 % of control | dose: 100.0 mg/kg/injection, schedule: Q01DX005 (ip), vehicle: Klucel (hydroxypropylcellulose) (HPC) 96 % of control | dose: 200.0 mg/kg/injection, schedule: Q01DX005 (ip), vehicle: Klucel (hydroxypropylcellulose) (HPC) 98 % of control

N=C(N)c1ccc(N=Nc2ccc(N)cc2N)cc1
inactive: dose: 60.0 mg/kg/injection, schedule: Q01DX005 (ip), vehicle: Klucel (hydroxypropylcellulose) (HPC) 120 % of control | dose: 120.0 mg/kg/injection, schedule: Q01DX005 (ip), vehicle: Klucel (hydroxypropylcellulose) (HPC) 124 % of control

Cc1noc(NC(=O)NC(=O)c2c(F)cccc2F)c1C
inactive: dose: 50.0 mg/kg/injection, schedule: Q04DX002 (ip), vehicle: saline with Tween-80 99 % of control | [4] 99 % of control | [5] 100 % of control

C=C(C)C1CC2=C(C(=O)OC)C=C(O2)C(C(=C)C)C2C=C(C(=O)O2)C2OC12 (configuration not stated)
inactive: dose: 12.5 mg/kg/injection, schedule: Q01DX005 (ip), vehicle: saline + alcohol 99 % of control | dose: 25.0 mg/kg/injection, schedule: Q01DX005 (ip), vehicle: saline + alcohol 103 % of control | dose: 50.0 mg/kg/injection, schedule: Q01DX005 (ip), vehicle: saline + alcohol 97 % of control | dose: 100.0 mg/kg/injection, schedule: Q01DX005 (ip), vehicle: saline + alcohol 108 % of control

NC1CN(C(COCc2ccccc2)c2ccc(OCc3ccccc3)cc2)C1=O (configuration not stated)
inactive: [9] 100 % of control | [10] 103 % of control | [11] 97 % of control

COc1nc(=O)n(C2CCCO2)cc1Br (configuration not stated)
inactive: dose: 60.0 mg/kg/injection, schedule: Q01DX005 (ip), vehicle: saline with Tween-80 96 % of control | dose: 120.0 mg/kg/injection, schedule: Q01DX005 (ip), vehicle: saline with Tween-80 102 % of control | dose: 240.0 mg/kg/injection, schedule: Q01DX005 (ip), vehicle: saline with Tween-80 100 % of control

CCOc1c(N=Nc2ccc(O)cc2)c(C)nn1C(=S)S
inactive: dose: 60.0 mg/kg/injection, schedule: Q01DX005 (ip), vehicle: Klucel + Tween-80 115 % of control | dose: 120.0 mg/kg/injection, schedule: Q01DX005 (ip), vehicle: Klucel + Tween-80 115 % of control | dose: 240.0 mg/kg/injection, schedule: Q01DX005 (ip), vehicle: Klucel + Tween-80 118 % of control
